From patent US9550821B2, “Modulation of ghrelin levels and ghrelin/unacylated ghrelin ratio using unacylated ghrelin” (ALIZÉ PHARMA SAS, priority 2012, dated 2017)
Where no end group is shown, it is not given here.

What was measured:
[1] = tested on: glucose, insulin and lipid metabolisms; details: cited from earlier work; for retention of UAG full length activity on glucose, insulin and lipid metabolisms: from U.S. Pat. Nos. 8,222,217 and 8,318,664; for smallest UAG fragment retaining UAG biological activity: from U.S. Pat. Nos. 8,222,217, 8,318,664 and WO/2008/145749
[2] = Overnight (15 hours) UAG infusion in T2DM subjects: serum UAG levels by MSD ELISA; type: in vivo, human; details: placebo 105.9±31.4
Method: (§1) A continuous overnight (15 hours) infusion of two doses of UAG (3 μg UAG/kg/hr and 10 μg UAG/kg/hr) versus placebo in a cross-over model on the AG concentrations was performed in eight overweight subjects with type 2 diabetes. FIG. 1 depicts a schematic representation of the study protocol. Glucose and insulin responses to a standard breakfast meal (SBM) in the subjects and reasonable metabolic control were assessed.
Single-center, investigator initiated, double blind and placebo controlled randomized study. During the first visit medical history, medication use and vital signs of subjects were checked. Blood samples were also taken for chemistry and hematology analysis. […]
Infusions were performed at the local clinical research unit for 15 hours from 9 pm to […]. […] The dose was calculated based on the subject's weight. […]
Standard breakfast meal (SBM) consisted of: • 3 slices wheat bread; • 3 portions of margarine; • 2 slices of cheese (48% fat); • 1 portion of jam; • 1 cup of whole milk; and • 1 boiled egg; for a total of 714 kcal (17% proteins; 46% fat; and 37% carbohydrates). […] At each of the 3 visits, the following safety parameters were assessed: hemoglobin, hematocrit, platelet count, WBC count, RBC count, and differential and were determined using Sysmex XE 2100, Firma Sysmex, Ecustraat 11, 4879 NP Etten-Leur. […]

[3] = Safety evaluation during overnight UAG infusion in T2DM subjects; type: in vivo, human
Method: as §1
Standard breakfast meal (SBM) consisted of: • 3 slices wheat bread; • 3 portions of margarine; • 2 slices of cheese (48% fat); • 1 portion of jam; • 1 cup of whole milk; and • 1 boiled egg; for a total of 714 kcal (17% proteins; 46% fat; and 37% carbohydrates). […] At each of the 3 visits, the following safety parameters were assessed: hemoglobin, hematocrit, platelet count, WBC count, RBC count, and differential and were determined using Sysmex XE 2100, Firma Sysmex, Ecustraat 11, 4879 NP Etten-Leur. AST, ALT, alkaline phosphatase, total bilirubin, creatine phophokinase (CPK), lactate dehydrogenase (LDH), creatinine, urea, amylase, lipase, uric acid, glucose, cholesterol, LDL, HDL, triglycerides, sodium, potassium, calcium, chloride, protein and albumin are determined using the Hitachi Modular P800, Roche Transistorstraat 41, 1332 CK Almere. […] AG and UAG levels were assessed before the start of the overnight infusion, 10 minutes before the start and 30 minutes after the SBM. […]

[4] = tested on: AG-induced food intake; assay: AG-induced food intake in rats; type: in vivo, Sprague-Dawley rats; details: rat, i.p. 42 μg/kg together with AG 13 μg/kg; food intake at 30 min, 1 h, 2 h
Method: With respect to the experimental data presented in FIG. 8, Sprague-Dawley rats of 7 weeks of age, weighing between 275 g and 300 g, were fed a pellet diet ad libitum and were singly housed in plastic cage. The experiment was performed at 2.5 h after the onset of the light cycle in freely fed rats. The rates were i.p. injected simultaneously with vehicle plus vehicle, vehicle+AG (13 μg/kg) or cyclised UAG (6-13) (SEQ ID NO: 25) (42 μg/kg)+AG (13 μg/kg). Immediately after the completion of the i.p. injection in rats, the night-ad-libitum food was removed and replaced by 2 pellets for each animal, previously weighed, placed into the top of the cage. Food intake was calculated as the difference between the food weight before and after the feeding period at each time interval (30 min, 1 h, and 2 h). Cumulative food intake was calculated by summating the values of the different time periods.

## SPEHQRVQ [UAG (6-13)]
[1]
  retention of UAG full length activity on glucose, insulin and lipid metabolisms: retain the activity of UAG full length

## EHQRVQ [UAG (8-13)]
[1]
  retention of UAG full length activity on glucose, insulin and lipid metabolisms: retain the activity of UAG full length

## Glu-His-Gln-Arg (EHQR; listed as Homo sapiens) [UAG (8-11)]
[1]
  smallest UAG fragment retaining UAG biological activity: smallest UAG fragment to retain UAG activities
  retention of UAG full length activity on glucose, insulin and lipid metabolisms: retain the activity of UAG full length

## His-Gln-Arg-Val (HQRV; listed as Homo sapiens) [UAG (9-12)]
[1]
  smallest UAG fragment retaining UAG biological activity: smallest UAG fragment to retain the biological activity of UAG
  retention of UAG full length activity on glucose, insulin and lipid metabolisms: retain the activity of UAG full length

## CC(C)C[C@H](NC(=O)[C@H](CCCCN)NC(=O)[C@H](C)NC(=O)[C@@H]1CCCN1C(=O)[C@@H]1CCCN1C(=O)[C@H](CCCCN)NC(=O)[C@H](CCCCN)NC(=O)[C@H](CO)NC(=O)[C@H](CCC(=O)O)NC(=O)[C@H](CCCCN)NC(=O)[C@H](CCCNC(=N)N)NC(=O)[C@H](CCC(N)=O)NC(=O)[C@H](CCC(N)=O)NC(=O)[C@@H](NC(=O)[C@H](CCCNC(=N)N)NC(=O)[C@H](CCC(N)=O)NC(=O)[C@H](Cc1cnc[nH]1)NC(=O)[C@H](CCC(=O)O)NC(=O)[C@@H]1CCCN1C(=O)[C@H](CO)NC(=O)[C@H](CC(C)C)NC(=O)[C@H](Cc1ccccc1)NC(=O)[C@H](CO)NC(=O)[C@H](CO)NC(=O)CN)C(C)C)C(=O)N[C@@H](CCC(N)=O)C(=O)N1CCC[C@H]1C(=O)N[C@@H](CCCNC(=N)N)C(=O)O [UAG]
[2]; 3 mcg/kg·hr UAG overnight infusion
  serum UAG levels before start of the SBM (mean±SD): 10998 ± 2623 pg/mL
[2]; 10 mcg/kg·hr UAG overnight infusion
  serum UAG levels before start of the SBM (mean±SD): 12085 ± 1616 pg/mL
[3]; 3 and 10 μg UAG/kg/hr overnight infusion
  laboratory evaluations: no significant changes in chemistry or parameters
[3]; 3 and 10 μg UAG/kg/hr overnight infusion vs placebo
  side effects reported by subjects: did not report more side effects than placebo

## Glu-His-Gln-Arg-Val (EHQRV; listed as Homo sapiens) [UAG (8-12)]
[1]
  retention of UAG full length activity on glucose, insulin and lipid metabolisms: retain the activity of UAG full length

## Ser-Pro-Glu-His-Gln-Arg-Val-Gln (cycl) (SPEHQRVQ; cyclised; (1)..(8) Cyclic; listed as Homo sapiens) [cyclic UAG (6-13)]
[4]
  effect on AG-induced food intake (orexigenic effect): able to counteract the orexigenic effects induced by AG

## His-Gln-Arg (HQR; listed as Homo sapiens) [UAG (9-11)]
[1]
  retention of UAG full length activity on glucose, insulin and lipid metabolisms: retain the activity of UAG full length
